# Test results as given in ChEMBL document CHEMBL4765227, “Hit to lead optimization of a series of N-[4-(1,3-benzothiazol-2-yl)phenyl]acetamides as monoacylglycerol lipase inhibitors with potential anticancer activity” (Eur J Med Chem, 2016).
# Key:
# Format in all cases: functional
# K562 = assay: Growth inhibition of human K562 cells at 10 uM incubated for 48 hrs by sulforhodamine B assay relative to control; details: read-out: GI
# MOLT-4 = assay: Growth inhibition of human MOLT-4 cells at 10 uM incubated for 48 hrs by sulforhodamine B assay relative to control; details: read-out: GI
# EKVX = assay: Growth inhibition of human EKVX cells at 10 uM incubated for 48 hrs by sulforhodamine B assay relative to control; details: read-out: GI
# HOP-62 = assay: Growth inhibition of human HOP-62 cells at 10 uM incubated for 48 hrs by sulforhodamine B assay relative to control; details: read-out: GI
# SNB-75 = assay: Growth inhibition of human SNB-75 cells at 10 uM incubated for 48 hrs by sulforhodamine B assay relative to control; details: read-out: GI
# Malme-3M [1] = assay: Growth inhibition of human Malme-3M cells at 10 uM incubated for 48 hrs by sulforhodamine B assay relative to control; details: read-out: GI
# SK-MEL-2 = assay: Growth inhibition of human SK-MEL-2 cells at 10 uM incubated for 48 hrs by sulforhodamine B assay relative to control; details: read-out: GI
# SK-MEL-28 = assay: Growth inhibition of human SK-MEL-28 cells at 10 uM incubated for 48 hrs by sulforhodamine B assay relative to control; details: read-out: GI
# IGROV-1 = assay: Growth inhibition of human IGROV-1 cells at 10 uM incubated for 48 hrs by sulforhodamine B assay relative to control; details: read-out: GI
# OVCAR-3 = assay: Growth inhibition of human OVCAR-3 cells at 10 uM incubated for 48 hrs by sulforhodamine B assay relative to control; details: read-out: GI
# NCI/ADR-RES [2] = assay: Growth inhibition of human NCI/ADR-RES cells at 10 uM incubated for 48 hrs by sulforhodamine B assay relative to control; details: read-out: GI
# 786-0 [3] = assay: Growth inhibition of human 786-0 cells at 10 uM incubated for 48 hrs by sulforhodamine B assay relative to control; details: read-out: GI
# A498 = assay: Growth inhibition of human A498 cells at 10 uM incubated for 48 hrs by sulforhodamine B assay relative to control; details: read-out: GI
# CAKI-1 = assay: Growth inhibition of human CAKI-1 cells at 10 uM incubated for 48 hrs by sulforhodamine B assay relative to control; details: read-out: GI
# MCF7 = assay: Growth inhibition of human MCF7 cells at 10 uM incubated for 48 hrs by sulforhodamine B assay relative to control; details: read-out: GI
# BT-549 [4] = assay: Growth inhibition of human BT-549 cells at 10 uM incubated for 48 hrs by sulforhodamine B assay relative to control; details: read-out: GI
# RPMI-8226 = assay: Growth inhibition of human RPMI-8226 cells incubated for 48 hrs by sulforhodamine B assay
# SR = assay: Growth inhibition of human SR cells incubated for 48 hrs by sulforhodamine B assay
# HOP-92 = assay: Growth inhibition of human HOP-92 cells incubated for 48 hrs by sulforhodamine B assay
# NCI-H23 = assay: Growth inhibition of human NCI-H23 cells incubated for 48 hrs by sulforhodamine B assay
# NCI-H322M = assay: Growth inhibition of human NCI-H322M cells incubated for 48 hrs by sulforhodamine B assay
# COLO 205 = assay: Growth inhibition of human COLO 205 cells incubated for 48 hrs by sulforhodamine B assay
# HT-29 = assay: Growth inhibition of human HT-29 cells incubated for 48 hrs by sulforhodamine B assay
# SF-539 = assay: Growth inhibition of human SF-539 cells incubated for 48 hrs by sulforhodamine B assay
# SNB-19 = assay: Growth inhibition of human SNB-19 cells incubated for 48 hrs by sulforhodamine B assay
# U-251 = assay: Growth inhibition of human U-251 cells incubated for 48 hrs by sulforhodamine B assay
# Malme-3M [5] = assay: Growth inhibition of human Malme-3M cells incubated for 48 hrs by sulforhodamine B assay
# UACC-62 = assay: Growth inhibition of human UACC-62 cells incubated for 48 hrs by sulforhodamine B assay
# NCI/ADR-RES [6] = assay: Growth inhibition of human NCI/ADR-RES cells incubated for 48 hrs by sulforhodamine B assay
# 786-0 [7] = assay: Growth inhibition of human 786-0 cells incubated for 48 hrs by sulforhodamine B assay
# ACHN = assay: Growth inhibition of human ACHN cells incubated for 48 hrs by sulforhodamine B assay
# PC-3 = assay: Growth inhibition of human PC-3 cells incubated for 48 hrs by sulforhodamine B assay
# MDA-MB-231 = assay: Growth inhibition of human MDA-MB-231 cells incubated for 48 hrs by sulforhodamine B assay
# BT-549 [8] = assay: Growth inhibition of human BT-549 cells incubated for 48 hrs by sulforhodamine B assay
# T47D = assay: Growth inhibition of human T47D cells incubated for 48 hrs by sulforhodamine B assay
# [9] = read-out: LC50 (the source's name)
compound,measurement,setting,value
O=C(Cn1nnc2ccccc21)Nc1ccc(-c2nc3ccccc3s2)cc1,inhibition of growth at 10 µM,K562,44.8%
same,inhibition of growth at 10 µM,MOLT-4,38.4%
same,inhibition of growth at 10 µM,EKVX,21.8%
same,inhibition of growth at 10 µM,HOP-62,-1.24%
same,inhibition of growth at 10 µM,SNB-75,-6.26%
same,inhibition of growth at 10 µM,Malme-3M [1],3.07%
same,inhibition of growth at 10 µM,SK-MEL-2,-0.54%
same,inhibition of growth at 10 µM,SK-MEL-28,-1.87%
same,inhibition of growth at 10 µM,IGROV-1,2.46%
same,inhibition of growth at 10 µM,OVCAR-3,9.56%
same,inhibition of growth at 10 µM,NCI/ADR-RES [2],3.77%
same,inhibition of growth at 10 µM,786-0 [3],5.01%
same,inhibition of growth at 10 µM,A498,14.9%
same,inhibition of growth at 10 µM,CAKI-1,14.5%
same,inhibition of growth at 10 µM,MCF7,71.1%
same,inhibition of growth at 10 µM,BT-549 [4],13.5%
O=C(CNc1c(Cl)cccc1Cl)Nc1ccc(-c2nc3ccccc3s2)cc1,inhibition of growth at 10 µM,K562,89.5%
same,inhibition of growth at 10 µM,MOLT-4,94.4%
same,inhibition of growth at 10 µM,HOP-62,-18.3%
same,inhibition of growth at 10 µM,SNB-75,40.8%
same,inhibition of growth at 10 µM,Malme-3M [1],150%
same,inhibition of growth at 10 µM,SK-MEL-2,15.2%
same,inhibition of growth at 10 µM,SK-MEL-28,-3.93%
same,inhibition of growth at 10 µM,IGROV-1,50.7%
same,inhibition of growth at 10 µM,OVCAR-3,45.6%
same,inhibition of growth at 10 µM,NCI/ADR-RES [2],36%
same,inhibition of growth at 10 µM,786-0 [3],75.9%
same,inhibition of growth at 10 µM,CAKI-1,71.2%
same,inhibition of growth at 10 µM,MCF7,85.4%
same,inhibition of growth at 10 µM,BT-549 [4],78%
same,GI50,RPMI-8226,2.07 µM
same,LC50,RPMI-8226,> 100 µM
same,TGI,RPMI-8226,5.21 µM
same,GI50,SR,1.05 µM
same,LC50,SR,> 100 µM
same,TGI,SR,5.33 µM
same,GI50,HOP-92,1.88 µM
same,LC50 (concentration killing 50% of cells),HOP-92,26.7 µM
same,TGI,HOP-92,6.3 µM
same,GI50,NCI-H23,2 µM
same,LC50 (lethal concentration 50%),NCI-H23,17.1 µM
same,TGI,NCI-H23,4.59 µM
same,GI50,NCI-H322M,1.8 µM
same,LC50 (concentration killing 50% of cells),NCI-H322M,7.07 µM
same,TGI,NCI-H322M,3.57 µM
same,GI50,COLO 205,2.1 µM
same,LC50,COLO 205,8.79 µM
same,TGI,COLO 205,4.29 µM
same,GI50,HT-29,2.01 µM
same,LC50,HT-29,8.66 µM
same,TGI,HT-29,4.17 µM
same,GI50,SF-539,1.83 µM
same,LC50,SF-539,6.34 µM
same,TGI,SF-539,3.41 µM
same,GI50,SNB-19,2.5 µM
same,LC50,SNB-19,80 µM
same,TGI,SNB-19,9.28 µM
same,GI50,U-251,2.02 µM
same,LC50 (lethal concentration 50),U-251,9.45 µM
same,TGI,U-251,4.37 µM
same,GI50,Malme-3M [5],1.71 µM
same,TGI,Malme-3M [5],3.43 µM
same,CC50,Malme-3M [5]; [9],6.88 µM
same,GI50,UACC-62,1.72 µM
same,LC50,UACC-62,8.97 µM
same,TGI,UACC-62,3.92 µM
same,GI50,NCI/ADR-RES [6],3.06 µM
same,LC50,NCI/ADR-RES [6],> 100 µM
same,TGI,NCI/ADR-RES [6],8.06 µM
same,GI50,786-0 [7],1.76 µM
same,LC50 (50% lethal concentration),786-0 [7],8.34 µM
same,TGI,786-0 [7],3.83 µM
same,GI50,ACHN,1.82 µM
same,LC50,ACHN,6.63 µM
same,TGI,ACHN,3.47 µM
same,GI50,PC-3,1.73 µM
same,TGI,PC-3,3.47 µM
same,CC50,PC-3; [9],6.98 µM
same,GI50,MDA-MB-231,2.73 µM
same,LC50 (concentration causing 50% cell kill),MDA-MB-231,> 100 µM
same,TGI,MDA-MB-231,7.35 µM
same,GI50,BT-549 [8],1.7 µM
same,LC50 (concentration killing 50% of cells),BT-549 [8],44.4 µM
same,TGI,BT-549 [8],5.39 µM
same,GI50,T47D,1.86 µM
same,LC50 (concentration killing 50% of cells),T47D,> 100 µM
same,TGI,T47D,5.44 µM
O=C(Cn1ccc2ccccc21)Nc1ccc(-c2nc3ccccc3s2)cc1,inhibition of growth at 10 µM,K562,-3.37%
same,inhibition of growth at 10 µM,MOLT-4,5.48%
same,inhibition of growth at 10 µM,EKVX,-7.41%
same,inhibition of growth at 10 µM,HOP-62,-3.42%
same,inhibition of growth at 10 µM,SNB-75,6.21%
same,inhibition of growth at 10 µM,Malme-3M [1],-8.06%
same,inhibition of growth at 10 µM,SK-MEL-28,-13.7%
same,inhibition of growth at 10 µM,IGROV-1,26.2%
same,inhibition of growth at 10 µM,OVCAR-3,-2.19%
same,inhibition of growth at 10 µM,NCI/ADR-RES [2],-0.33%
same,inhibition of growth at 10 µM,786-0 [3],-3.1%
same,inhibition of growth at 10 µM,A498,0.94%
same,inhibition of growth at 10 µM,CAKI-1,-0.29%
same,inhibition of growth at 10 µM,MCF7,61.8%
same,inhibition of growth at 10 µM,BT-549 [4],-5.34%
O=C(Cn1cnc2ccccc21)Nc1ccc(-c2nc3ccccc3s2)cc1,inhibition of growth at 10 µM,K562,66.4%
same,inhibition of growth at 10 µM,MOLT-4,44.2%
same,inhibition of growth at 10 µM,EKVX,46.8%
same,inhibition of growth at 10 µM,HOP-62,12.6%
same,inhibition of growth at 10 µM,SNB-75,6.6%
same,inhibition of growth at 10 µM,Malme-3M [1],18.9%
same,inhibition of growth at 10 µM,SK-MEL-28,-0.72%
same,inhibition of growth at 10 µM,IGROV-1,35.1%
same,inhibition of growth at 10 µM,OVCAR-3,35.8%
same,inhibition of growth at 10 µM,NCI/ADR-RES [2],38.9%
same,inhibition of growth at 10 µM,786-0 [3],20.5%
same,inhibition of growth at 10 µM,A498,33.2%
same,inhibition of growth at 10 µM,CAKI-1,38.1%
same,inhibition of growth at 10 µM,MCF7,50.6%
same,inhibition of growth at 10 µM,BT-549 [4],43.5%
